Laboratory results reported in PubChem BioAssay (NCI).
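Method: 48-hour compound exposure of cells in 96-well plates, five concentrations, linear interpolation of endpoints. GI50 is the concentration that inhibits growth by half. The concentration for full growth arrest is given as TGI.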

What was measured:
Assay in all cases: NCI anticancer screen, dose series, 48 h
HL-60(TB) leukemia = tested on: HL-60(TB) leukemia
OVCAR-3 ovarian = tested on: OVCAR-3 ovarian
NCI-H23 lung = tested on: NCI-H23 lung
OVCAR-8 ovarian = tested on: OVCAR-8 ovarian
U251 CNS = tested on: U251 CNS
SF-295 CNS = tested on: SF-295 CNS
ACHN renal = tested on: ACHN renal
M14 melanoma = tested on: M14 melanoma
HOP-62 NSCLC = tested on: HOP-62 NSCLC
SR leukemia = tested on: SR leukemia

| Structure (SMILES) | TGI (HL-60(TB) leukemia) | TGI (OVCAR-3 ovarian) | TGI (NCI-H23 lung) | TGI (OVCAR-8 ovarian) | TGI (U251 CNS) | TGI (SF-295 CNS) | TGI (ACHN renal) | TGI (M14 melanoma) | TGI (HOP-62 NSCLC) | TGI (SR leukemia) | GI50 (HL-60(TB) leukemia) | GI50 (ACHN renal) | GI50 (M14 melanoma) | GI50 (OVCAR-3 ovarian) | GI50 (NCI-H23 lung) | GI50 (HOP-62 NSCLC) | GI50 (OVCAR-8 ovarian) | GI50 (U251 CNS) | GI50 (SF-295 CNS) |
| --- | --- | --- | --- | --- | --- | --- | --- | --- | --- | --- | --- | --- | --- | --- | --- | --- | --- | --- | --- |
| CCOC(=O)C1=C(C(C)=O)CSC(c2ccccc2)=N1 | > 100 µM | > 100 µM | > 100 µM | > 100 µM | > 100 µM | > 100 µM |  |  |  |  |  |  |  |  |  |  |  |  |  |
| COP(=O)(O)/C=C/C(NC(=O)C(Cl)(Cl)Cl)c1ccccc1 (configuration not stated) | > 100 µM | > 100 µM | > 100 µM | > 100 µM | > 100 µM | > 100 µM | > 100 µM | > 100 µM | > 100 µM |  |  |  |  |  |  |  |  |  |  |
| O=C(O)C1CC(c2ccc(F)cc2)=Nc2ccc(F)cc2S1 (configuration not stated) | > 100 µM | > 100 µM | > 100 µM | > 100 µM |  | > 100 µM | > 100 µM | > 100 µM |  |  |  |  |  |  |  |  |  |  |  |
| O=C(CP(=O)(O)O)c1cccs1 | > 100 µM | > 100 µM | > 100 µM | > 100 µM | > 100 µM | > 100 µM | > 100 µM | > 100 µM | > 100 µM |  |  |  |  |  |  |  |  |  |  |
| CC1(C)O[C@@H]2COC(=O)[C@@H]2O1 | > 100 µM | > 100 µM | > 100 µM | > 100 µM | > 100 µM | > 100 µM | > 100 µM | > 100 µM |  | > 100 µM |  |  |  |  |  |  |  |  |  |
| CCCCn1c2c(n(CCCC)c1=S)-c1c(n(CCCC)c(=S)n1CCCC)S[Se][Se]S2 |  | 7.84 µM | 41.5 µM | 29.9 µM | 16.9 µM | 30.5 µM | 14.2 µM | 31.7 µM | 35.1 µM | > 100 µM |  |  |  |  |  |  |  |  |  |
| COCOc1ccc(OC)cc1 | > 100 µM | > 100 µM | > 100 µM | > 100 µM | > 100 µM | > 100 µM |  |  | > 100 µM |  |  |  |  |  |  |  |  |  |  |
| Cc1cc2c(C)cc(=O)[nH]c2cc1N |  | > 100 µM | > 100 µM | > 100 µM | > 100 µM | > 100 µM | > 100 µM | > 100 µM | > 100 µM | > 100 µM |  |  |  |  |  |  |  |  |  |
| O=C(NC(Cc1c[nH]c2ccccc12)C(=O)O)/C(=C/c1ccccc1O)NC(=O)c1ccccc1 (configuration not stated) | > 100 µM |  | > 100 µM | 28.9 µM | > 100 µM | 37 µM | 33.3 µM | > 100 µM |  | > 100 µM |  |  |  |  |  |  |  |  |  |
| CCCCN1CCN(c2ccc3nc(-c4ccc5nc(-c6ccc(C(F)(F)F)cc6)[nH]c5c4)[nH]c3c2)CC1 | 2.63 µM | 1.12 µM | 3.42 µM | 2.64 µM | 2.96 µM | 2.95 µM | 2.68 µM | 2.8 µM | 2.98 µM |  | 0.923 µM | 1.38 µM | 1.34 µM | 0.614 µM | 1.68 µM | 1.54 µM | 1.24 µM | 1.59 µM | 1.48 µM |
| N#Cc1c(-c2ccccc2)/c(=C\Nc2ccc(Cl)cc2)c(=O)n2c1nc1ccccc12 |  | > 100 µM | > 100 µM | > 100 µM | > 100 µM | > 100 µM | > 100 µM | > 100 µM | > 100 µM |  |  |  |  |  |  |  |  |  |  |
| CCCCCCCCCC[C@H](O)[C@H]1CC[C@H]([C@H]2CC[C@H]([C@H](O)CC[C@H](O)CCCCCCC[C@@H](O)CC3=C[C@H](C)OC3=O)O2)O1 |  | > 100 µM | > 100 µM | > 100 µM | > 100 µM | > 100 µM | > 100 µM | > 100 µM |  |  |  | 10 µM |  |  |  |  |  | > 100 µM |  |
| CCOC(=O)c1[nH]cc(C)c1-c1ccn(-c2ccccc2)c1 |  | > 100 µM | > 100 µM | > 100 µM | > 100 µM | > 100 µM | > 100 µM | > 100 µM | > 100 µM | 72.4 µM |  |  |  |  |  |  |  |  |  |
| CCC12C[N+]3([O-])CCc4c([nH]c5ccccc45)C(C(=O)OC)(c4cc5c(cc4OC)N(C)C4C(O)(C(=O)OC)C(OC(C)=O)C6(CC)C=CCN7CCC54C76)CC(C3)C1O2 (configuration not stated) |  | 1.3 µM | 8.49 µM | 54.1 µM | 86.1 µM | 1.86 µM | 31.9 µM | 17.8 µM | > 100 µM |  |  |  |  |  |  |  |  |  |  |
| Nc1c2ccccc2nc2c1ccc1ncccc12 | 20.4 µM | > 100 µM | 75.6 µM | > 100 µM | > 100 µM | > 100 µM | 41 µM | 43 µM |  | > 100 µM |  |  |  |  |  |  |  |  |  |
| CC(=O)OC[C@]1(C(=O)C(O)c2ccoc2)[C@H](C)CC[C@@]23COC(=O)C2=CCC[C@@H]31 (some centres not stated) | > 10 µM | > 10 µM | > 10 µM | > 10 µM | > 10 µM | > 10 µM | > 10 µM | > 10 µM |  | > 10 µM |  |  |  |  |  |  |  |  |  |
| CC(=O)NS(=O)(=O)c1ccc(NC(=O)c2c3ccccc3nc3ccccc23)cc1 |  | > 100 µM | > 100 µM | > 100 µM | > 100 µM | > 100 µM | > 100 µM | > 100 µM | > 100 µM | > 100 µM |  |  |  |  |  |  |  |  |  |
